SMILES strings stand for the structures.

One experiment is described as follows: Cytotoxicity against human HuH7 cells assessed as inhibition of cell proliferation by sulforhodamine B assay. The experiment is classed as functional, cell-based. The following applies: Huh-7.
One may read the IC50 as the concentration that gives 50% inhibition. In the case of `C#CC(=O)N1C(c2ccccc2)SC[C@@H]1C(=O)OCC` (some centres not stated), the IC50 was determined as 5300 nM.

`C#CC(=O)N1C(c2ccc(OC)cc2)SC[C@@H]1C(=O)OCC` (mixture of isomers): the IC50 was determined as 1400 nM.

For the compound `C#CC(=O)N1C(c2ccc(F)cc2)SC[C@@H]1C(=O)OCC` (mixture of isomers), the concentration for half-maximal inhibition (IC50) is 700 nM.

Regarding `C#CC(=O)N1C(c2cccc(F)c2)SC[C@@H]1C(=O)OCC` (mixture of isomers), the IC50 was found to be 1400 nM.

Turning to `C#CC(=O)N1C(c2ccccc2F)SC[C@@H]1C(=O)OCC` (mixture of isomers), the IC50 stood at 1700 nM.

For `C#CC(=O)N1C(c2ccc(C#N)cc2)SC[C@@H]1C(=O)OCC` (mixture of isomers), the IC50 amounted to 2600 nM.

Turning to `C#CC(=O)N1C(CCCCC)SC[C@@H]1C(=O)OCC` (mixture of isomers), the IC50 came to 1800 nM.

As for `C#CC(=O)N1C(CCCC)SC[C@@H]1C(=O)OCC` (mixture of isomers), the IC50 was found to be 500 nM.

On to `C#CC(=O)N1C(C(CC)CCCC)SC[C@@H]1C(=O)OCC` (mixture of isomers), for which the 50% inhibitory concentration (IC50) was found to be 1700 nM.

Regarding `C#CC(=O)N1C(CC(C)CC(C)(C)C)SC[C@@H]1C(=O)OCC` (mixture of isomers), the IC50 amounted to 1600 nM.

In the case of `C#CC(=O)N1C(C(C)CCC)SC[C@@H]1C(=O)OCC` (mixture of isomers), the 50% inhibitory concentration (IC50) came to 600 nM.

`C#CC(=O)N1C(C(C)(C)C)SC[C@@H]1C(=O)OCC` (mixture of isomers): the IC50 was determined as 800 nM.

As to `CC[C@@]1(O)C(=O)OCc2c1cc1n(c2=O)Cc2cc3ccccc3nc2-1` [CAMPTOTHECIN], the IC50 was 100 nM.

The nature of another experiment: Cytotoxicity against human MV cells assessed as inhibition of cell proliferation by sulforhodamine B assay. The experiment is classed as functional, cell-based.
Details: not given
(In general: Sulforhodamine B stains cellular protein and so reports cell mass.)
Regarding `C#CC(=O)N1C(c2ccccc2)SC[C@@H]1C(=O)OCC` (some centres not stated), the IC50 is 400 nM.

`C#CC(=O)N1C(c2ccc(OC)cc2)SC[C@@H]1C(=O)OCC` (mixture of isomers): the IC50 amounted to 700 nM.

In the case of `C#CC(=O)N1C(c2ccc(F)cc2)SC[C@@H]1C(=O)OCC` (mixture of isomers), the half-inhibitory concentration (IC50) stood at 400 nM.

As for `C#CC(=O)N1C(c2cccc(F)c2)SC[C@@H]1C(=O)OCC` (mixture of isomers), the IC50 was 1700 nM.

For the compound `C#CC(=O)N1C(c2ccccc2F)SC[C@@H]1C(=O)OCC` (mixture of isomers), the IC50 was found to be 1700 nM.

In the case of `C#CC(=O)N1C(c2ccc(C#N)cc2)SC[C@@H]1C(=O)OCC` (mixture of isomers), the IC50 was 2400 nM.

On to `C#CC(=O)N1C(CCCCC)SC[C@@H]1C(=O)OCC` (mixture of isomers), for which the IC50 was 2000 nM.

With `C#CC(=O)N1C(CCCC)SC[C@@H]1C(=O)OCC` (mixture of isomers), the IC50 is 400 nM.

In the case of `C#CC(=O)N1C(C(CC)CCCC)SC[C@@H]1C(=O)OCC` (mixture of isomers), the IC50 was 1600 nM.

Regarding `C#CC(=O)N1C(CC(C)CC(C)(C)C)SC[C@@H]1C(=O)OCC` (mixture of isomers), the IC50 was found to be 1100 nM.

Regarding `C#CC(=O)N1C(C(C)CCC)SC[C@@H]1C(=O)OCC` (mixture of isomers), the IC50 was determined as 500 nM.

Take `C#CC(=O)N1C(C(C)(C)C)SC[C@@H]1C(=O)OCC` (mixture of isomers): the IC50 was 900 nM.

For the compound `CC[C@@]1(O)C(=O)OCc2c1cc1n(c2=O)Cc2cc3ccccc3nc2-1` [CAMPTOTHECIN], the IC50 was < 1000 nM.

As for `O=c1[nH]cc(F)c(=O)[nH]1` [FLUOROURACIL], the IC50 was 10000 nM.

For the origin of these results see ChEMBL document CHEMBL3616386, “3-Propionyl-thiazolidine-4-carboxylic acid ethyl esters: a family of antiproliferative thiazolidines” (Medchemcomm, 2015).
